# Test results published in patent publication US10196403B2, “Compounds and compositions and uses thereof” (Sunovion Pharmaceuticals Inc., priority 2016, dated 2019).
# Tested on: mice
# Assay: Neuropharmacological Assay (SmartCube)
# Format: in vivo
# Details: for minimal effective dose: Mus musculus, MED = dose having 50% or more total activity in SmartCube, read-out: POTENCY (minimal effective dose, MED); for AD: ADHD (SmartCube probability) / AG: analgesic (SmartCube probability) / AX: anxiolytic (SmartCube probability) / CE: cognitive enhancer (SmartCube probability) / DP: anti-depressant (SmartCube probability) / MS: mood stabilizer (SmartCube probability) / PS: anti-psychotic (SmartCube probability) / SD: sedative hypnotic (SmartCube probability) / UN: uncharacterized CNS activity (SmartCube probability): mice, i.p. 15 min before test, most efficacious dose(s) of 3 doses
# Description: Neuropharmacological Assay (SmartCube™)
# Neurosci. 2011 Sep. 9; 5:103 (doi: 10.3389/fnins.2011.00103) (“Roberds”). As reported in Roberds, because psychiatric diseases generally result from disorders of cell-cell communication, circuitry, intact systems are useful in detecting improvement in disease-relevant endpoints. These endpoints are typically behavioral in nature, often requiring human observation and interpretation. To facilitate testing of multiple compounds for behavioral effects relevant to psychiatric disease, PsychoGenics, Inc. (Tarrytown, N.Y., “PGI”) developed SmartCube™, an automated system in which behaviors of compound-treated mice are captured by digital video and analyzed with computer algorithms. (D. Brunner et al., Drug Discov. Today 2002, 7:S107-S112). PGI Analytical Systems uses data from SmartCube™ to compare the behavioral signature of a test compound to a database of behavioral signatures obtained using a large set of diverse reference compounds. (The composition of the database as well as validation of the method is further described in Roberds). In this way, the neuropharmacological effects of a test compound can be predicted by similarity to major classes of compounds, such as antipsychotics, anxiolytics and antidepressants.
# The SmartCube™ system produces an activity signature indicating the probability that the activity of the test compound at the administered dose matches a given class of neuropharmacological agents. (See, e.g., Roberds, FIGS. 2 and 3). The test compound is simultaneously compared against multiple classes of agents; thus, a separate probability is generated for each behavioral effect measured (e.g., anxiolytic activity, analgesic activity, etc.). In the table below, these probabilities are reported for each behavioral effect measured as follows:
# where LOQ is the limit of quantification.
# Provided compounds were dissolved in a mixture of Pharmasolve™ (N-methyl-2-pyrrolidone), polyethylene glycol and propylene glycol, and were injected i.p. 15 min. before the behavioral test. For each compound, injections were administered at 3 different doses. For each behavioral effect measured, results for the most efficacious dose(s) are presented. In the table below, DP: anti-depressant; AX: anxiolytic; SD: sedative hypnotic; PS: anti-psychotic; MS: mood stabilizer; AD: ADHD; CE: cognitive enhancer; AG: analgesic; UN: uncharacterized CNS activity.
# The potency of many of the compounds in the table was also determined in the SmartCube™ system. Test compounds were routinely examined at dose levels of 0.3, 1, 3 10 and 30 mg per kg (mpk), although the dose range was increased or decreased if necessary to obtain a full dose response curve. A compound's minimal effective dose (MED) is a measure of the compounds potency. The MED was defined as the dose (in mpk) having 50% or more total activity in SmartCube.
SMILES,minimal effective dose,AD: ADHD (SmartCube probability),AG: analgesic (SmartCube probability),AX: anxiolytic (SmartCube probability),CE: cognitive enhancer (SmartCube probability),DP: anti-depressant (SmartCube probability),MS: mood stabilizer (SmartCube probability),PS: anti-psychotic (SmartCube probability),SD: sedative hypnotic (SmartCube probability),UN: uncharacterized CNS activity (SmartCube probability)
"CNC[C@H]1OCCc2ccc(F)cc21 [Example 13, (S)-1-(7-fluoroisochroman-1-yl)-N-methylmethanamine]",10 to 30 mg/kg,+ (LOQ≤ + <5%),++ (5%≤ ++ <25%),++ (5%≤ ++ <25%),+ (LOQ≤ + <5%),++ (5%≤ ++ <25%),+ (LOQ≤ + <5%),+ (LOQ≤ + <5%),++ (5%≤ ++ <25%),+++ (25%≤ +++ <50%)
"CNC[C@@H]1OCCc2ccc(F)cc21 [Example 15, (R)-1-(7-fluoroisochroman-1-yl)-N-methylmethanamine]",< 3 mg/kg,+ (LOQ≤ + <5%),++ (5%≤ ++ <25%),++ (5%≤ ++ <25%),++ (5%≤ ++ <25%),++ (5%≤ ++ <25%),++ (5%≤ ++ <25%),+++ (25%≤ +++ <50%),++ (5%≤ ++ <25%),+++ (25%≤ +++ <50%)
"CNC[C@H]1OCCc2cc(F)ccc21 [Example 16, (S)-1-(6-fluoroisochroman-1-yl)-N-methylmethanamine]",10 to 30 mg/kg,+ (LOQ≤ + <5%),++ (5%≤ ++ <25%),++ (5%≤ ++ <25%),+ (LOQ≤ + <5%),++ (5%≤ ++ <25%),+ (LOQ≤ + <5%),+++ (25%≤ +++ <50%),++ (5%≤ ++ <25%),+ (LOQ≤ + <5%)
"CNC[C@H]1OCCc2c(F)cccc21 [Example 18, (S)-1-(5-fluoroisochroman-1-yl)-N-methylmethanamine]",10 to 30 mg/kg,+ (LOQ≤ + <5%),++ (5%≤ ++ <25%),++ (5%≤ ++ <25%),++ (5%≤ ++ <25%),++ (5%≤ ++ <25%),+ (LOQ≤ + <5%),+ (LOQ≤ + <5%),+ (LOQ≤ + <5%),++ (5%≤ ++ <25%)
"CNC[C@H]1OC[C@@H](C)c2ccccc21 [Example 19, N-methyl-1-((1S,4S)-4-methylisochroman-1-yl)methanamine]",3 to 10 mg/kg,+ (LOQ≤ + <5%),++ (5%≤ ++ <25%),++ (5%≤ ++ <25%),++ (5%≤ ++ <25%),++ (5%≤ ++ <25%),++ (5%≤ ++ <25%),++ (5%≤ ++ <25%),+ (LOQ≤ + <5%),++ (5%≤ ++ <25%)
"CNC[C@@H]1OC[C@@H](C)c2ccccc21 [Example 20, N-methyl-1-((1R,4S)-4-methylisochroman-1-yl)methanamine]",< 3 mg/kg,+ (LOQ≤ + <5%),+ (LOQ≤ + <5%),++ (5%≤ ++ <25%),++ (5%≤ ++ <25%),++ (5%≤ ++ <25%),+ (LOQ≤ + <5%),++++ (50%≤ ++++),++ (5%≤ ++ <25%),++++ (50%≤ ++++)
"CNC[C@H]1OC[C@@H](F)c2ccccc21 [Example 21, 1-((1S,4S)-4-fluoroisochroman-1-yl)-N-methylmethanamine]",3 to 10 mg/kg,+ (LOQ≤ + <5%),+++ (25%≤ +++ <50%),++ (5%≤ ++ <25%),++ (5%≤ ++ <25%),++ (5%≤ ++ <25%),+ (LOQ≤ + <5%),++ (5%≤ ++ <25%),++ (5%≤ ++ <25%),+++ (25%≤ +++ <50%)
"CNC[C@@H]1OC[C@H](F)c2ccccc21 [Example 22, 1-((1R,4R)-4-fluoroisochroman-1-yl)-N-methylmethanamine]",< 3 mg/kg,+ (LOQ≤ + <5%),++ (5%≤ ++ <25%),++ (5%≤ ++ <25%),++ (5%≤ ++ <25%),+++ (25%≤ +++ <50%),++ (5%≤ ++ <25%),+++ (25%≤ +++ <50%),++ (5%≤ ++ <25%),+ (LOQ≤ + <5%)
"CNC[C@H]1OCC(C)(C)c2ccccc21 [Example 23, (S)-1-(4,4-dimethylisochroman-1-yl)-N-methylmethanamine]",3 to 10 mg/kg,+ (LOQ≤ + <5%),++ (5%≤ ++ <25%),++ (5%≤ ++ <25%),++ (5%≤ ++ <25%),++ (5%≤ ++ <25%),+ (LOQ≤ + <5%),+++ (25%≤ +++ <50%),++ (5%≤ ++ <25%),+ (LOQ≤ + <5%)
"CNC[C@@H]1OCC(C)(C)c2ccccc21 [Example 24, (R)-1-(4,4-dimethylisochroman-1-yl)-N-methylmethanamine]",< 3 mg/kg,+ (LOQ≤ + <5%),++ (5%≤ ++ <25%),++ (5%≤ ++ <25%),++ (5%≤ ++ <25%),++ (5%≤ ++ <25%),+ (LOQ≤ + <5%),+++ (25%≤ +++ <50%),++ (5%≤ ++ <25%),+++ (25%≤ +++ <50%)
"CNC[C@H]1OCCc2cccc(F)c21 [Example 25, (S)-1-(8-fluoroisochroman-1-yl)-N-methylmethanamine]",3 to 10 mg/kg,+ (LOQ≤ + <5%),++ (5%≤ ++ <25%),+ (LOQ≤ + <5%),++ (5%≤ ++ <25%),+++ (25%≤ +++ <50%),+ (LOQ≤ + <5%),++ (5%≤ ++ <25%),++ (5%≤ ++ <25%),+ (LOQ≤ + <5%)
